Assay results as given in EP0537980A1, “Cyclohexaneacetic acid derivatives as inhibitors of fibrinogen-dependent blood platelet aggregation” (GLAXO GROUP LIMITED, priority 1991, dated 1993).
Where a name gives a salt, the structure may show the parent alone.

Each molecule was assayed on human gel filtered platelets (GFP) (assay: Inhibition of ADP-induced, fibrinogen-dependent blood platelet aggregation in human gel filtered platelets (GFP)). Conditions: fibrinogen 0.5mg/ml, compounds incubated 5 minutes at 37°C, ADP 1 x 10⁻⁵M, concentration required to produce 50% inhibition of platelet aggregation, read-out: IC₅₀.
Type: cell-based
Description: Inhibition of blood platelet aggregation by compounds of the invention was determined according to the following procedure. Citrated whole blood (1 part 3.8% trisodium citrate: 9 parts blood) was obtained from human volunteers, free of medication for at least 10 days prior to collection. The blood was incubated with 0.1mM aspirin and 0.05µM prostacyclin and then centrifuged at 1000g for 4 minutes (20°C). The supernatant platelet rich plasma (PRP) was further centrifuged at 1300g for 10 minutes (20°C) to sediment the platelets. The supernatant was discarded and the pellet washed with a physiological salt solution (HEPES 5mM, NaHCO₃ 12mM, NaCl 140mM, KH₂PO₄ 0.74mM, D-Glucose 5.6mM, KCl 2.82mM and BSA 20g/l, pH 7.4) to remove residual plasma. After washing, the pellet was resuspended in physiological salt solution and then applied to a sepharose CL-2B column, pre-equilibrated with physiological salt solution at room temperature. The platelets (GFP) eluted within the void volume and were diluted to approximately 300,000 platelets/µl in buffer. Purified human fibrinogen (Knight L.C. et al, 1981 Thromb. Haemostasis, 46(3), 593-596) was added to a final concentration of 0.5mg/ml together with Ca2+ and Mg2+ at 1mM and 0.5mM respectively. […] The potency of the compounds may be expressed as an IC₅₀ value, defined as the concentration of compound required to produce 50% inhibition of platelet aggregation.

Structure (SMILES) | IC50 [nM]
N=C(N)c1ccc(C2CCN(C3CCC(O)(CC(=O)O)CC3)CC2)cc1 (stereo not drawn) [Example 4, cis-4-[4-[4-(Aminoiminomethyl)phenyl]-1-piperidinyl]-1-hydroxycyclohexaneacetic acid, trifluoroacetate salt] | 13
N=C(N)c1ncc(N2CCN(C3CCC(O)(CC(=O)O)CC3)CC2)cn1 (stereo not drawn) [Example 3, cis-4-[4-[2-(Aminoiminomethyl)-5-pyrimidinyl]-1-piperazinyl]-1-hydroxycyclohexaneacetic acid, trifluoroacetate salt] | 543
N=C(N)c1ccc(N2CCN(C3CCC(O)(CC(=O)O)CC3)CC2)c(Br)c1 (stereo not drawn) [Example 2, cis-4-[4-[4-(Aminoiminomethyl)-2-bromophenyl]-1-piperazinyl]-1-hydroxycyclohexaneacetic acid, trifluoroacetate salt] | 945
N=C(N)c1ccc(N2CCN(C3CCC(O)(CC(=O)O)CC3)CC2)c(-c2ccccc2)c1 (centres unmarked) [Example 6, trifluoroacetate salt] | 1550
N=C(N)c1ccc(N2CCN([C@H]3CC[C@@](O)(CC(=O)O)CC3)CC2)cn1 [Example 5, cis-4-[4-[2-(Aminoiminomethyl)-5-pyridinyl]-1-piperazinyl]-1-hydroxycyclohexaneacetic acid, trifluoroacetate salt] | 220
